In article PMC9227994, “Evaluation of the Intestinal Permeability of Rosmarinic Acid from Thunbergia laurifolia Leaf Water Extract in a Caco-2 Cell Model” (Molecules, 2022):
Entries after “also recorded” stand apart in the source; their conditions may differ. Read-outs that look alike come from different tables or passages of the source.

Assays:
[1] = Stability of RA in HBSS (pH 7.4) at 37 °C for 2 h; type: physicochemical; conditions: HBSS pH 7.4, 37 °C, TL extract 250 µg/mL equivalent to pure RA 3.267 µg/mL
Description: The stability of RA in the TL extract of 250 µg/mL, which was equivalent to pure RA of 3.267 µg/mL in HBSS solution was determined. The TL extracts and RA were dissolved in HBSS solution (pH 7.4) and incubated at 37 °C for 2 h according to the same conditions as in the transport experiment. The contents of the RA as in TL extract and pure compound were measured for stability tests using HPLC. Their RA remains before and after incubation were calculated and expressed as a percentage of RA.

[2] = Transepithelial transport (permeability) across Caco-2 cell monolayers, HPLC-PDA, with or without β-glucuronidase/sulfatase deconjugation; type: in vitro ADME, human; conditions: human, after β-glucuronidase/sulfatase
Description: (§1) Caco-2 cells (ATCC no. HTB-37) were obtained from the American Type Culture Collection (Rockville, MD, USA) and cultured in DMEM containing […] sodium pyruvate, 20% fetal bovine serum, and 10,000 U/mL penicillin and 10,000 ug/mL streptomycin. Cell culture was maintained at 37 °C in a humidified atmosphere of 5% CO2. On achieving 80–90% confluence, Caco-2 cells were harvested using 0.25% trypsin–EDTA solution and mixed with complete DMEM medium. All cells were used for transport experiments between passages 30 and 40. The integrity of the Caco-2 cell monolayer in the transwell plates was evaluated by measuring transepithelial electrical resistance (TEER) across the monolayers using Millicell-ERS VoltOhm Meter (Millipore, Temecula, CA, USA). […] A (cm^2) is the area of the insert, 1.12 cm^2. […] The culture medium in inserts and plates was changed every 2–3 days for both A and B sides. All cells were used for transport experiments on days 19–21 postseeding. Before starting the transport experiment, the inserts were washed twice and equilibrated with transport buffer (HBSS containing […] HEPES, pH 7.4) for 30 min. Sample solutions of TL extract and RA were prepared and diluted in HBSS to the desired final concentrations. For the transport study of TL extract and RA across Caco-2 cell, sample solutions were added on donor chamber, 400 µL on A side or 1200 µL on B side. The equal volumes of transport buffer were replaced in the receiving chambers. The RA transport in samples was assessed either in A-B or B-A direction across Caco-2 cell monolayers. The plates were incubated at 37 °C for 120 min with gentle shaking at 100 rpm. The solutions of 200 µL on A side and 600 µL on B side were collected at the selected times of 30, 60, 90, and 120 min and immediately replaced with an equal volume of transport buffer to maintain the total volume in receiving chamber. Samples were stored at −80°C until analysis. The amount of transported RA in samples and reference compound was calculated using HPLC system according to the standard curve. β-glucuronidase/sulfatase (Type H-2 from Helix pomatia, 85 units/L of glucuronidase, and 7.5 units/L of sulfatase, Sigma-Aldrich Co., St. Louis, MO, USA) was added to collected samples, which were obtained from B-A solutions at 30, 60, 90, and 120 min, in a ratio of 1:20 and incubated at 37 °C for 4 h to release the parent compounds. These samples from both sides were then injected directly and analyzed for RA by HPLC. The relationship of Q (cumulative permeated amount; μg) versus time, was calculated with the following Equation (3):(3) Q=CnV+∑i=1n−1CiS where Cn is concentration of RA determined at nth sampling interval; V is volume of individual side, ∑i=1n−1Ci is sum of concentration of RA determined at sampling intervals 1 through n − 1, and S is volume of sampling aliquot The Papp (unit: cm/s) was determined and calculated from the amount of compound permeated per time by the following Equation (4):(4) Papp=(dQ/dt/C0×A) where dQ/dt is the steady-state flux of test compound across the cell monolayer in the receiver chamber (µg/min); C0 is the initial concentration in the donor (A or B side) chamber (µg/mL), and A is the surface area of the cell monolayer (cm^2). The membrane area (cm^2) of the insert is 1.12 cm^2. The ER was determined by calculating the ratio of Papp (B-A) versus Papp (A-B) as the following Equation (5):(5) ER=Papp (B-A)/Papp (A-B) where Papp (B-A) is the apparent permeability coefficient value in B-A direction, and Papp (A-B) is the permeability coefficient value in A-B direction. Basolateral recovery (%) was calculated as the amount of test compound transported through the Caco-2 cell monolayer to the B side and remaining on the A side at the end of the experiment divided by the initial amount on the A side.

[3] = tested on: Caco-2 cell monolayers; test: as above; type: in vitro ADME, human; conditions: for Papp (A-B) relative to B-A direction: after deconjugation; for ER (after Deconjugation): Papp (B-A)/Papp (A-B)
Description: as §1

[4] = set-up: method as in doi:10.1039/C6RA28237G; conditions: rats, cited from earlier work
[5] = tested on: Caco-2 cells; set-up: method as in PMID 15784988; conditions: cited from earlier work
[6] = cited from earlier work
[7] = Cytotoxicity test, MTT assay; type: cell-based, human; conditions: human, Caco-2 cells, 1000 µg/mL, read-out: cell viability
Description: (§2) Cell viability of TL extracts and RA on Caco-2 cells was determined using MTT following modified assay. Caco-2 cells were seeded in 96-well plates at a density of 2 × 10^4 cells/well and cultured at 37 °C and 5% CO2 for 24 h. TL extracts and RA were dissolved in 50% DMSO and diluted with complete DMEM medium containing 0.1% DMSO in the culture medium. The tested compounds were diluted with medium at a concentration range of 1–1000 µg/mL for 24 h exposure experiment. After removal of the medium, the cells were washed with PBS and incubated with 50 µL of 0.5% MTT solution for 2 h at 37 °C and 5% CO2. A total of 50 μL of DMSO was put into each well to dissolve the formazan crystals. The absorbance was detected using a microplate reader at 590 nm. The percentage of cell viability was calculated according to the following Equation (1):(1) % Cell viability=A (sample)−A (blank)/A (control)−A (blank)×100 where A (sample) is absorbance value of sample; A (blank) is absorbance value of blank, and A (negative control) is absorbance value of control (cells). The experiment was performed in three replicates, and the concentration with a viability of more than 90% was chosen for evaluation in monolayer transport experiments as nontoxic to cells.

[8] = tested on: Caco-2 cells; test: Cytotoxicity test, MTT assay; type: cell-based, human; conditions: concentrations below 500 µg/mL, 24 h
Description: as §2

[9] = pure RA 3.267 µg/mL, after β-glucuronidase/sulfatase, listed as RA in pure RA

Compound: O=C(/C=C/c1ccc(O)c(O)c1)O[C@H](Cc1ccc(O)c(O)c1)C(=O)O [RA, Rosmarinic acid]
- RA stability in HBSS [1]: 91%
- Papp A→B at 120 min, 3.267 µg/mL ([2]; Caco-2, pH 7.4, pure RA 3.267 µg/mL, read-out: Papp A-B Direction (after Deconjugation)): 41.2 ± 2.29 ×10⁻⁶ cm/s
- Papp B→A at 120 min, 3.267 µg/mL ([2]; Caco-2, pH 7.4, pure RA 3.267 µg/mL, read-out: Papp B-A Direction (after Deconjugation)): 20.4 ± 5.16 ×10⁻⁶ cm/s
- Papp A→B at 120 min, 6.808 µg/mL ([2]; Caco-2, pH 7.4, pure RA 6.808 µg/mL, read-out: Papp A-B Direction (after Deconjugation)): 22.9 ± 0.97 ×10⁻⁶ cm/s
- Papp B→A at 120 min, 6.808 µg/mL ([2]; Caco-2, pH 7.4, pure RA 6.808 µg/mL, read-out: Papp B-A Direction (after Deconjugation)): 6.2 ± 0.2 ×10⁻⁶ cm/s
- efflux ratio (ER), overall ([3]; all concentrations, below 2 taken as no active efflux): less than 2
- Papp (A-B) relative to B-A direction ([3]; pure RA 3.267 µg/mL): 2.02 fold
- ER (after Deconjugation) ([3]; pure RA 3.267 µg/mL): 0.5
- Papp A-B Direction (after Deconjugation) [3, 9]: 41.2 ± 2.3 × 10^−6 cm/s
- Papp B-A Direction (after Deconjugation) [3, 9]: 20.4 ± 5.2 × 10^−6 cm/s
- Papp (A-B) relative to B-A direction ([3]; pure RA 6.808 µg/mL): 3.67 fold
- ER (after Deconjugation) ([3]; pure RA 6.808 µg/mL): 0.3
- Papp A-B Direction (after Deconjugation) ([3]; pure RA 6.808 µg/mL, after β-glucuronidase/sulfatase, listed as RA in pure RA): 22.9 ± 1.0 × 10^−6 cm/s
- Papp values before deconjugation, A-B and B-A directions ([3]; pure RA, both concentrations, both directions): could not be detected; also recorded: not detectable
- oral absolute BA ([4]; single oral dose 12.5 mg/kg): 1.69%
- oral absolute BA ([4]; single oral dose 25 mg/kg): 1.28%
- oral absolute BA ([4]; single oral dose 50 mg/kg): 0.91%
- RA absorbed in Caco-2 cells [5]: 0.03–0.06%
- logarithm of octanol–water partition coefficient (logP) [6]: 1.626
- partition coefficient (log Kow) [6]: 1.82
- viability at 24 h, 1000 µg/mL [7]: 85%
- Cytotoxicity to Caco-2 cells [8]: nontoxic
